The assay addresses Human factor D (Homo sapiens (Human), UniProt P00746). Briefly: Human Factor D Assay. It is filed as biochemical. The note with it: Human factor D 80 nM, substrate Z-L-Lys-SBzl, assay of Example 12. In short, it runs like this: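 Serum-purified human factor D (80 nM final) was preincubated 5 min at room temperature with compound in 50 mM Tris, 1 M NaCl, pH 7.5. Z-L-Lys-SBzl and DTNB (100 μM each) were added and OD405 followed kinetically over 30 min; IC50 from non-linear regression of percent inhibition.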

Each structure is given as a SMILES string.

Human factor D, sequence (P00746 26-253): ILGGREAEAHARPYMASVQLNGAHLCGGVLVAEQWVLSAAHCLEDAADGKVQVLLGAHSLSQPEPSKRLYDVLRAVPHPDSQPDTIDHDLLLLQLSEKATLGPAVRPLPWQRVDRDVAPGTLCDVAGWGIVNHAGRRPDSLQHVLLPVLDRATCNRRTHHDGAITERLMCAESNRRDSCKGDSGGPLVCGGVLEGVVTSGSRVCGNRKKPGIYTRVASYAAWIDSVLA

Regarding `NC(=O)c1nn(CC(=O)N2CCS[C@H]2C(=O)Nc2cccc(-c3ccccc3Cl)c2F)c2ccc(C#Cc3ncccn3)cc12` [Compound 66, (S)-3-(2-(3-carbamoyl-5-(pyrimidin-2-ylethynyl)-1H-indazol-1-yl)acetyl)-N-(2′-chloro-2-fluorobiphenyl-3-yl)thiazolidine-2-carboxamide], the half-inhibitory concentration (IC50) was less than 1 µM.

On to `NC(=O)c1nn(CC(=O)N2C[C@H](F)C[C@H]2C(=O)NCc2cccc(Cl)c2F)c2ccc(C#Cc3ncccn3)cc12` [Compound 20, 1-(2-((2S,4R)-2-(3-chloro-2-fluorobenzylcarbamoyl)-4-fluoropyrrolidin-1-yl)-2-oxoethyl)-5-(pyrimidin-2-ylethynyl)-1H-indazole-3-carboxamide], for which the half-inhibitory concentration (IC50) is less than 1 µM.

`NC(=O)c1nn(CC(=O)N2C[C@H](F)C[C@H]2C(=O)Nc2cccc(Cl)n2)c2ccc(C#Cc3ncc(F)cn3)cc12` [Compound 88, 1-(2-((2S,4R)-2-(6-chloropyridin-2-ylcarbamoyl)-4-fluoropyrrolidin-1-yl)-2-oxoethyl)-5-((5-fluoropyrimidin-2-yl)ethynyl)-1H-indazole-3-carboxamide] came in with an IC50 of less than 1 µM.

`NC(=O)c1nn(CC(=O)N2C[C@H](F)C[C@H]2C(=O)Nc2cccc(Cl)n2)c2ccc(C#Cc3ccnnc3)cc12` [Compound 80, 1-(2-((2S,4R)-2-(6-chloropyridin-2-ylcarbamoyl)-4-fluoropyrrolidin-1-yl)-2-oxoethyl)-5-(pyridazin-4-ylethynyl)-1H-indazole-3-carboxamide] had an IC50 of less than 1 µM.

On to `CC1(C)CCCC(NC(=O)[C@@H]2C[C@@H](F)CN2C(=O)Cn2nc(C(N)=O)c3cc(C#Cc4ncccn4)ccc32)C1` (stereo partly drawn) [Compound 44, 1-(2-((2S,4R)-2-(3,3-dimethylcyclohexylcarbamoyl)-4-fluoropyrrolidin-1-yl)-2-oxoethyl)-5-(pyrimidin-2-ylethynyl)-1H-indazole-3-carboxamide], for which the half-inhibitory concentration (IC50) was less than 1 µM.

In turn, `NC(=O)c1nn(CC(=O)N2C[C@H](F)C[C@H]2C(=O)Nc2ccc(C(F)(F)F)c(Cl)n2)c2ccc(C#Cc3ncc(F)cn3)cc12` [Compound 76, 1-(2-((2S,4R)-2-(6-chloro-5-(trifluoromethyl)pyridin-2-ylcarbamoyl)-4-fluoropyrrolidin-1-yl)-2-oxoethyl)-5-((5-fluoropyrimidin-2-yl)ethynyl)-1H-indazole-3-carboxamide] came in with an IC50 of less than 1 µM.

In the case of `COc1ncc(C#Cc2ccc3c(c2)c(C(N)=O)nn3CC(=O)N2C[C@H](F)C[C@H]2C(=O)Nc2cccc(Br)n2)cn1` [Compound 92, 1-(2-((2S,4R)-2-(6-bromopyridin-2-ylcarbamoyl)-4-fluoropyrrolidin-1-yl)-2-oxoethyl)-5-((2-methoxypyrimidin-5-yl)ethynyl)-1H-indazole-3-carboxamide], the 50% inhibitory concentration (IC50) was less than 1 µM.

Turning to `CC(=O)c1cn(CC(=O)N2C[C@H](F)C[C@H]2C(=O)NCc2cccc(Cl)c2F)c2cc(C#Cc3c[nH]c(=O)nc3N)ccc12` [Compound 5, (2S,4R)-1-(2-(3-acetyl-6-((4-amino-2-oxo-1,2-dihydropyrimidin-5-yl)ethynyl)-1H-indol-1-yl)acetyl)-N-(3-chloro-2-fluorobenzyl)-4-fluoropyrrolidine-2-carboxamide], the half-maximal inhibitory concentration (IC50) is less than 1 µM.

As for `NC(=O)c1nn(CC(=O)N2[C@@H]3C[C@@H]3C[C@H]2C(=O)Nc2cccc(OC(F)(F)F)c2F)c2ccc(C#Cc3ncccn3)cc12` [Compound 34, 1-(2-((1R,3S,5R)-3-(2-fluoro-3-(trifluoromethoxy)phenyl-carbamoyl)-2-azabicyclo[3.1.0]hexan-2-yl)-2-oxoethyl)-5-(pyrimidin-2-ylethynyl)-1H-indazole-3-carboxamide], the half-inhibitory concentration (IC50) is less than 1 µM.

Molecule `CC(=O)c1cn(CC(=O)N2C[C@H](F)C[C@H]2C(=O)NCc2cccc(Cl)c2F)c2ccc(C#Cc3ncccn3)cc12` [Compound 9, (2S,4R)-1-(2-(3-acetyl-5-(pyrimidin-2-ylethynyl)-1H-indol-1-yl)acetyl)-N-(3-chloro-2-fluorobenzyl)-4-fluoropyrrolidine-2-carboxamide] came in with an IC50 of less than 1 µM.

`N#Cc1ccc(C#Cc2ccc3c(c2)c(C(N)=O)nn3CC(=O)N2[C@@H]3C[C@@H]3C[C@H]2C(=O)Nc2cccc(Br)n2)nc1` [Compound 60, 1-(2-((1R,3S,5R)-3-(6-bromopyridin-2-ylcarbamoyl)-2-azabicyclo[3.1.0]hexan-2-yl)-2-oxoethyl)-5-((5-cyanopyridin-2-yl)ethynyl)-1H-indazole-3-carboxamide]: the concentration for half-maximal inhibition (IC50) was less than 1 µM.

Molecule `NC(=O)c1nn(CC(=O)N2[C@@H]3C[C@@H]3C[C@H]2C(=O)Nc2cccc(C3CC3)n2)c2ccc(C#Cc3ncccn3)cc12` [Compound 54, 1-(2-((1R,3S,5R)-3-(6-cyclopropylpyridin-2-ylcarbamoyl)-2-azabicyclo[3.1.0]hexan-2-yl)-2-oxoethyl)-5-(pyrimidin-2-ylethynyl)-1H-indazole-3-carboxamide] came in with an IC50 of less than 1 µM.

Molecule `NC(=O)c1nn(CC(=O)N2C[C@H](F)C[C@H]2C(=O)Nc2cccc(-c3ccccc3Cl)n2)c2ccc(C#Cc3ncccn3)cc12` [Compound 47, 1-(2-((2S,4R)-2-(6-(2-chlorophenyl)pyridin-2-ylcarbamoyl)-4-fluoropyrrolidin-1-yl)-2-oxoethyl)-5-(pyrimidin-2-ylethynyl)-1H-indazole-3-carboxamide] registered a half-maximal inhibitory concentration (IC50) of less than 1 µM.

As to `Cc1cnc(C#Cc2ccc3c(c2)c(C(N)=O)nn3CC(=O)N2C[C@H](F)C[C@H]2C(=O)Nc2cccc(Br)n2)nc1` [Compound 91, 1-(2-((2S,4R)-2-(6-bromopyridin-2-ylcarbamoyl)-4-fluoropyrrolidin-1-yl)-2-oxoethyl)-5-((5-methylpyrimidin-2-yl)ethynyl)-1H-indazole-3-carboxamide], the 50% inhibitory concentration (IC50) was less than 1 µM.

With `NC(=O)c1nn(CC(=O)N2[C@@H]3C[C@@H]3C[C@H]2C(=O)Nc2cccc(-c3ccccc3Cl)c2F)c2ccc(C#Cc3ncc(F)cn3)cc12` [Compound 53, 1-(2-((1R,3S,5R)-3-(2′-chloro-2-fluorobiphenyl-3-ylcarbamoyl)-2-azabicyclo[3.1.0]hexan-2-yl)-2-oxoethyl)-5-((5-fluoropyrimidin-2-yl)ethynyl)-1H-indazole-3-carboxamide], the half-maximal inhibitory concentration (IC50) was less than 1 µM.

The molecule `CC(=O)c1cn(CC(=O)N2C[C@H](F)C[C@H]2C(=O)NCc2cccc(Cl)c2F)c2ccc(C#Cc3c[nH]c(=O)nc3N)cc12` [Compound 7, (2S,4R)-1-(2-(3-acetyl-5-((4-amino-2-oxo-1,2-dihydropyrimidin-5-yl)ethynyl)-1H-indol-1-yl)acetyl)-N-(3-chloro-2-fluorobenzyl)-4-fluoropyrrolidine-2-carboxamide] returned an IC50 of less than 1 µM.

Turning to `NC(=O)c1nn(CC(=O)N2[C@@H]3C[C@@H]3C[C@H]2C(=O)Nc2cccc(Cl)n2)c2ccc(C#Cc3cccnn3)cc12` [Compound 77, 1-(2-((1R,3S,5R)-3-(6-chloropyridin-2-ylcarbamoyl)-2-azabicyclo[3.1.0]hexan-2-yl)-2-oxoethyl)-5-(pyridazin-3-ylethynyl)-1H-indazole-3-carboxamide], the IC50 is less than 1 µM.

Regarding `NC(=O)c1nn(CC(=O)N2[C@@H]3C[C@@H]3C[C@H]2C(=O)Nc2cccc(Br)n2)c2ccc(C#Cc3ncccn3)cc12` [Compound 41, 1-(2-((1R,3S,5R)-3-(6-bromopyridin-2-ylcarbamoyl)-2-azabicyclo[3.1.0]hexan-2-yl)-2-oxoethyl)-5-(pyrimidin-2-ylethynyl)-1H-indazole-3-carboxamide], the concentration for half-maximal inhibition (IC50) is less than 1 µM.

In the case of `NC(=O)c1nn(CC(=O)N2[C@@H]3C[C@@H]3C[C@H]2C(=O)Nc2cccc(F)n2)c2ccc(C#Cc3ncccn3)cc12` [Compound 62, 1-(2-((1R,3S,5R)-3-(6-fluoropyridin-2-ylcarbamoyl)-2-azabicyclo[3.1.0]hexan-2-yl)-2-oxoethyl)-5-(pyrimidin-2-ylethynyl)-1H-indazole-3-carboxamide], the 50% inhibitory concentration (IC50) was less than 1 µM.

Molecule `CC(C)=C(F)CNC(=O)[C@@H]1C[C@@H](F)CN1C(=O)Cn1nc(C(N)=O)c2cc(C#Cc3ncccn3)ccc21` [Compound 45, 1-(2-((2S,4R)-4-fluoro-2-(2-fluoro-3-methylbut-2-enylcarbamoyl)pyrrolidin-1-yl)-2-oxoethyl)-5-(pyrimidin-2-ylethynyl)-1H-indazole-3-carboxamide] registered an IC50 of less than 1 µM.

The molecule `CC(=O)c1cn(CC(=O)N2C[C@H](F)C[C@H]2C(=O)NCc2cccc(Cl)c2F)c2ccc(C#Cc3ccccc3)cc12` [Compound 14, (2S,4R)-1-(2-(3-acetyl-5-(phenylethynyl)-1H-indol-1-yl)acetyl)-N-(3-chloro-2-fluorobenzyl)-4-fluoropyrrolidine-2-carboxamide] displayed an IC50 of less than 1 µM.

`NC(=O)c1nn(CC(=O)N2C[C@H](F)C[C@H]2C(=O)Nc2cccc(-c3ccc(F)cc3Cl)c2F)c2ccc(C#Cc3ncccn3)cc12` [Compound 49, 1-(2-((2S,4R)-2-(2′-chloro-2,4′-difluorobiphenyl-3-ylcarbamoyl)-4-fluoropyrrolidin-1-yl)-2-oxoethyl)-5-(pyrimidin-2-ylethynyl)-1H-indazole-3-carboxamide] returned a half-maximal inhibitory concentration (IC50) of less than 1 µM.

As for `NC(=O)c1nn(CC(=O)N2C[C@H](F)C[C@H]2C(=O)NCc2cccc(Cl)c2F)c2ccc(C#Cc3cccc(F)n3)cc12` [Compound 37, 1-(2-((2S,4R)-2-(3-chloro-2-fluorobenzylcarbamoyl)-4-fluoropyrrolidin-1-yl)-2-oxoethyl)-5-((6-fluoropyridin-2-yl)ethynyl)-1H-indazole-3-carboxamide], the IC50 was less than 1 µM.

Molecule `NC(=O)c1nn(CC(=O)N2C[C@H](F)C[C@H]2C(=O)Nc2cccc(Cl)n2)c2ccc(C#Cc3cnccn3)cc12` [Compound 82, 1-(2-((2S,4R)-2-(6-chloropyridin-2-ylcarbamoyl)-4-fluoropyrrolidin-1-yl)-2-oxoethyl)-5-(pyrazin-2-ylethynyl)-1H-indazole-3-carboxamide] returned an IC50 of less than 1 µM.

For the origin of these results see patent US9828396B2, “Alkyne compounds for treatment of complement mediated disorders” (Achillion Pharmaceuticals, Inc., priority 2014, dated 2017).
